Measured values reported in paper PMC6155665, “Antiplasmodial Activity, Cytotoxicity and Structure-Activity Relationship Study of Cyclopeptide Alkaloids” (Molecules : A Journal of Synthetic Chemistry and Natural …, 2017).
Read-outs that look alike come from different tables or passages of the source.

Experiments:
[1] = system: MRC-5 cells; conditions: cited from earlier work
[2] = system: P. falciparum strain K1; design: method as in PMID 27351950, PMID 27933893; conditions: previously reported by the same group, same test conditions; cited from earlier work
[3] = Cytotoxicity against MRC-5 cells; conditions: human
Description: (§1) The antiplasmodial and cytotoxic activity determinations of all cyclopeptide alkaloids were performed as reported before. Each experiment was performed at least in triplicate and the average IC50 values were calculated.

[4] = system: P. falciparum strain K1; assay: In vitro antiplasmodial activity; format: cell-based; conditions: Plasmodium falciparum
Description: as §1

[5] = system: Plasmodium falciparum; conditions: cited from earlier work; for IC50: read-out: antiplasmodial IC50
[6] = read-out: MRC-5 IC50, cytotoxicity, previously reported by the same group
[7] = strain K1, average of at least triplicate, read-out: P. falciparum K1 IC50
[8] = corresponding to the μg/mL values, Suksamrarn et al.

In the case of `CCC(C)[C@@H]1NC(=O)[C@@H]2[C@H](CCN2C(=O)[C@H](Cc2c[nH]c3ccccc23)N(C)C)Oc2ccc(cc2)/C=C\NC1=O` (stereo partly shown) [Compound 17, Hemsine-A], the IC50 [1, 6] is given as greater than 64 µM and the IC50 [2] is given as 13.6 ± 9.3 µM.

`CC[C@H](C)[C@@H]1NC(=O)[C@@H](NC(=O)[C@H](CC(C)C)N(C)C)[C@H](C(C)C)Oc2ccc(cc2)/C=C\NC1=O` [Compound 9, Adouetine-X] showed an IC50 ([3]; MRC-5 cells) of 19.1 ± 11.9 µM and an IC50 [4, 7] of 7.5 ± 1.8 µM.

For `CCC(C)[C@@H](C(=O)N[C@H](C(=O)N[C@@H]1C(=O)N[C@@H](Cc2c[nH]c3ccccc23)C(=O)NCC(O)c2ccc(cc2)OC1(C)C)C(C)C)N(C)C` (stereo partly shown) [Compound 12, Hymenocardinol], the IC50 [1] is listed as greater than 64 µM and the IC50 [2] is listed as 17.5 ± 8.7 µM.

For `O=C1N/C=C\c2ccc(cc2)O[C@@H](c2ccccc2)[C@H](NC(=O)[C@@H]2CCCN2C(=O)/C=C/c2ccccc2)C(=O)N[C@H]1C(O)c1ccccc1` (stereo partly shown) [Compound 19, Oxyphylline-F], the IC50 [1, 6] is given as 31.2 ± 1.4 µM and the IC50 [2] is given as 7.4 ± 3 µM.

For `CCC(C)[C@H](C(=O)N[C@@H](CC(C)C)C(=O)N1CC[C@@H]2Oc3ccc(OC)c(c3)/C=C\NC(=O)[C@@H]3CCCN3C(=O)[C@H]21)N(C)C` (stereo partly shown) [ziziphine-N], the “antiplasmodial IC50” value ([5]; Suksamrarn et al.) is listed as 3.92 µg/mL and the IC50 [5, 8] is listed as 6.4 µM.

For `CCC(C)[C@H](NC(=O)[C@H](C(C)CC)N(C)C)C(=O)N[C@@H]1C(=O)N[C@@H](Cc2c[nH]cn2)C(=O)NCC(=O)c2ccc(cc2)O[C@H]1C(C)C` (stereo partly shown) [Compound 14, Hymenocardine-H], the IC50 [1] is listed as greater than 64 µM and the IC50 [2] is listed as 27.9 ± 16.5 µM.

In the case of `CN[C@@H](C)C(=O)N[C@H](C(=O)N1CC[C@@H]2Oc3ccc(OC)c(c3)/C=C\NC(=O)[C@H](Cc3ccccc3)NC(=O)[C@H]21)C(C)C` [Compound 8, Nummularine-B], the IC50 [3] is given as greater than 64 µM, the IC50 [4, 7] is given as 3.6 ± 1.3 µM and the “antiplasmodial activity against Plasmodium falciparum (in words)” value ([5]; Panseeta et al.) is given as “moderately active”. For the same compound, the IC50 ([5]; Panseeta et al.) was 10.3 µM.

`CCC(C)[C@@H](C(=O)N[C@@H]1C(=O)N[C@@H](CC(C)C)C(=O)N/C=C\c2ccc(cc2)O[C@H]1C(C)C)N(C)C` (stereo partly shown) [Compound 10, Frangulanine] showed an IC50 ([3]; MRC-5 cells) of 30.6 ± 6.5 µM and an IC50 [4, 7] of 14.9 ± 5.2 µM.

In the case of `CCC(C)[C@H](C(=O)N[C@H](C(=O)N1CC[C@@H]2Oc3ccc(OC)c(c3)/C=C\NC(=O)[C@@H]3CCCN3C(=O)[C@H]21)C(C)C)N(C)C` (stereo partly shown) [ziziphine-Q], the “antiplasmodial IC50” value ([5]; Suksamrarn et al.) is given as 3.5 µg/mL and the IC50 [5, 8] is given as 5.9 µM.

For nummularine-B methiodide, the “antiplasmodial activity against Plasmodium falciparum (in words)” value ([5]; Panseeta et al.) is given as “not”.

`CN[C@@H](C)C(=O)N[C@H](C(=O)N1CC[C@@H]2Oc3ccc(cc3)/C=C\NC(=O)[C@H](Cc3ccccc3)NC(=O)[C@H]21)C(C)C` [Compound 2, Mauritine-F] gave an IC50 [3] greater than 64 µM and an IC50 [4, 7] of 34.2 ± 9.14 µM.

In the case of `CCC(C)[C@@H]1NC(=O)[C@@H]2[C@H](CCN2C(=O)[C@H](C(C)CC)N(C)C)Oc2ccc(cc2)/C=C\NC1=O` (stereo partly shown) [Compound 18, Ramosine-A], the IC50 [1, 6] is given as greater than 64 µM and the IC50 [2] is given as greater than 32 µM.

For `CCC(C)[C@@H]1NC(=O)[C@@H]2[C@H](CCN2C(=O)[C@@H](NC)C(C)CC)Oc2ccc(cc2)/C=C\NC1=O` (stereo partly shown) [Compound 1, Nummularine-U], the IC50 ([3]; MRC-5 cells) was greater than 64 µM and the IC50 [4, 7] was 23 ± 8.5 µM.

For mauritine-L, the “antiplasmodial activity against Plasmodium falciparum (in words)” value ([5]; Panseeta et al.) is listed as “not”.

With `CN[C@@H](C)C(=O)N[C@H](C(=O)N1CC[C@@H]2Oc3ccc(OC)c(c3)/C=C\NC(=O)[C@H](C(C)C)NC(=O)[C@H]21)C(C)C` [Compound 6, Jubanine-F] the IC50 [3] was greater than 64 µM and the IC50 [4, 7] was 12.8 ± 2.9 µM.

In the case of ziziphine-P, the “antiplasmodial activity (in words)” value ([5]; Suksamrarn et al.) is listed as “not active”.

Compound `CCN(CC)CCCC(C)Nc1ccnc2cc(Cl)ccc12` (stereo not shown) [Chloroquine, reference compound] has an IC50 ([4]; K1, read-out: P. falciparum K1 IC50) of 0.15 µM.

In the case of `CCC(C)[C@@H]1NC(=O)[C@@H]2[C@H](CCN2C(=O)[C@H](Cc2c[nH]c3ccccc23)N(C)C)Oc2ccc(O)c(c2)/C=C\NC1=O` (stereo partly shown) [Compound 16, O-desmethylnummularine-R], the IC50 [1, 6] is given as greater than 64 µM and the IC50 [2] is given as 7.1 ± 1.6 µM.

For `CCC(C)[C@@H](C(=O)N[C@H](C(=O)N[C@@H]1C(=O)N[C@@H](Cc2c[nH]c3ccccc23)C(=O)NCC(=O)c2ccc(cc2)OC1(C)C)C(C)C)[N+](C)(C)[O-]` (stereo partly shown) [Compound 13, Hymenocardine N-oxide], the IC50 [1] is given as greater than 64 µM and the IC50 [2] is given as 12.2 ± 6.6 µM.

Work on `CCC(C)[C@@H]1NC(=O)[C@@H]2[C@H](CCN2C(=O)[C@@H](NC(=O)[C@H](Cc2ccccc2)N(C)C)C(C)CC)Oc2ccc(cc2)/C=C\NC1=O` (stereo partly shown) [Compound 5, Amphibine-D] yielded an IC50 [3] greater than 64 µM and an IC50 [4, 7] of 8.9 ± 1.5 µM.

In the case of `CCC(C)[C@@H]1NC(=O)[C@@H]2[C@H](CCN2C(=O)[C@@H](NC(=O)[C@H](Cc2ccccc2)N(C)C)C(C)CC)Oc2ccc(O)c(c2)/C=C\NC1=O` (stereo partly shown) [Compound 3, Spinanine-B], the IC50 [3] is reported as greater than 64 µM and the IC50 [4, 7] is reported as 2.1 ± 0.3 µM.

In the case of `CCC(C)[C@@H](C(=O)N[C@H](C(=O)N[C@@H]1C(=O)N[C@@H](Cc2c[nH]c3ccccc23)C(=O)NCC(=O)c2ccc(cc2)OC1(C)C)C(C)C)N(C)C` (stereo partly shown) [Compound 11, Hymenocardine], the IC50 [1] is given as 51.1 ± 17.2 µM and the IC50 [2] is given as 16.4 ± 6.8 µM.

In the case of `CCC(C)[C@@H](NC)C(=O)N[C@@H](CC(C)C)C(=O)N1CC[C@@H]2Oc3ccc(OC)c(c3)/C=C\NC(=O)[C@@H]3CCCN3C(=O)[C@H]21` (stereo partly shown) [ziziphine-O], the “antiplasmodial activity (in words)” value ([5]; Suksamrarn et al.) is given as “not active”.

With `CC(C)C[C@@H]1NC(=O)[C@@H](NC(=O)[C@H](C(C)O)N(C)C)[C@H](c2ccccc2)Oc2ccc(cc2)/C=C\NC1=O` (stereo partly shown) [Compound 4, Nummularine-E] the IC50 ([3]; MRC-5 cells) was greater than 64 µM and the IC50 [4, 7] was greater than 64 µM.

In the case of `CCC(C)[C@@H]1NC(=O)[C@@H]2[C@H](CCN2C(=O)[C@H](Cc2c[nH]c3ccccc23)N(C)C)Oc2ccc(OC)c(c2)/C=C\NC1=O` (stereo partly shown) [Compound 15, Nummularine-R], the IC50 [1, 6] is given as 30.6 ± 4 µM and the IC50 [2] is given as 3.2 ± 2.6 µM.

Work on `CCC(C)[C@H](NC(=O)[C@H](C)NC)C(=O)N1CC[C@@H]2Oc3ccc(OC)c(c3)/C=C\NC(=O)[C@H](C(C)C)NC(=O)[C@H]21` (stereo partly shown) [Compound 7, Jubanine-G] yielded an IC50 [3] greater than 64 µM and an IC50 [4, 7] of 4.7 ± 2.4 µM.
